Assays:
Format in all cases: cell-based
[1] = test system: Normal human (adult) dermal fibroblasts; experiment: Cell migration and proliferation of linear cell pattern embedded in collagen gel (configuration of FIG. 3); conditions: 10 μM in culture solution; observed at 3, 6, 9 and 21 hours; compared with culture solution and DMSO systems
Protocol: The above dish was sterilized with 70% ethanol. Normal human (adult) dermal fibroblasts (KF-4109, Cascade Biologics) dispersed in a culture solution (basal medium M-106-500S, additive agent KE-6350, and Cascade Biologics/KURABO) was seeded at 4×10^5 cells per dish. Cells were cultured using an incubator under conditions of 37° C. and 5% CO2 for 18 hours. A linear pattern formed by cells that had adhered was obtained.
Cell aggregates were embedded into gel that had been prepared using the collagen gel kit used in Example 5 and then three-dimensional culture was performed with the configuration of FIG. 3. After 30 minutes of gelling at 37° C., three types of culture were performed using (1) a system containing the above culture solution, (2) a system containing a culture solution prepared by adding 10 μM inhibitor PP2 to the above culture solution, and (3) a system containing a culture solution containing DMSO with the same concentration as that of DMSO (used as a solvent for preparing 1 mM stock solution of PP2) contained in the above-prepared culture solution containing PP2.

[2] = test system: bovine aortic vascular endothelial cells; experiment: Lumen formation test (cell shrinkage), cell pattern sandwiched between substrate and GFR Matrigel (configuration of FIG. 3); parameters: key: ∘: Large inhibition effect; Δ: Small inhibition effect; x: No inhibition effect; conditions: inhibitor previously added; shrinkage of multiple cells observed, GFR Matrigel
Protocol: (§1) An autoclave-sterilized substrate was arranged within a culture container and then an appropriate amount of MEM medium containing 5% fetal calf serum was added. 2.0×10^5 bovine aortic vascular endothelial cells were seeded per substrate. After 72 hours of culture, cells adhered only to oxidatively degraded regions and reached confluency on the lines each having a width of 60 μm.
200 μl of ice-cooled Growth Factor Reduced (GFR) Matrigel (Becton, Dickinson and Company) was spread over a culture container and then allowed to stand at room temperature for approximately 1 minute. The substrate was gently placed with its cell adhesion face down onto the matrigel. The resultant was allowed to stand for approximately 5 minutes while maintaining this condition. After complete gelling, MEM medium containing 5% fetal calf serum was added and then the substrate was immersed in the medium. The culture container was transferred into an incubator (37° C., 5% CO2) and then cells were cultured while being sandwiched between a substrate and matrigel. […] This is a phenomenon that is characteristically observed when vascular endothelial cells undergo lumen formation in response to differentiation signals coming from the extracellular matrix. When a vascularization inhibitor had been previously added to the three-dimensional culture system, shrinkage of multiple cells was inhibited or not inhibited according to the relevant pharmacologic action (Table 1). This means that the effect of a drug on lumen formation can be efficiently tested via observation of cell shrinkage that is observed at the initial stage of differentiation. This test method could also be performed for normal human umbilical vein endothelial cells in completely the same manner.

[3] = test system: bovine aortic vascular endothelial cells; experiment: Vascularization test, three-dimensional culture of cell pattern in collagen gel (configuration of FIG. 2); conditions: 50 μM added to three-dimensional culture system, medium with proliferation factors
Protocol: as §1, with “48” for “72”, “culture within an incubator (37° C., 5% CO2),” for “culture,”
A collagen solution was prepared on ice using a collagen gel culture kit (Cellmatrix I-A, Nitta gelatin). 500 μl of the solution was spread flatly over a 28 mm×33 mm well, followed by 10 minutes of gelling at 37° C. 2 ml of MEM medium containing 5% fetal calf serum was added to the gel. The substrate was caused to sink while upside-down in the medium, so that cells that had adhered to the substrate were caused to come into contact with collagen gel at the bottom. After 4 hours of culture within an incubator, the substrate was carefully removed using a pair of tweezers. […] The medium was removed by suction, 250 μl of the collagen solution was applied in layers to the cells, and then gelling was performed at 37° C. for 10 minutes. […]

| SMILES | cell migration [1] | cell proliferation [1] | Inhibition effect (inhibiting lumen formation) [2] | vascularization [3] |
| --- | --- | --- | --- | --- |
| CC(C)(C)n1nc(-c2ccc(Cl)cc2)c2c(N)ncnc21 [PP2] | significantly suppressed | significantly suppressed | ∘ |  |
| Cc1ccc(C(=O)Nc2ccc(S(=O)(=O)O)c3cc(S(=O)(=O)O)cc(S(=O)(=O)O)c23)cc1NC(=O)c1cccc(NC(=O)Nc2cccc(C(=O)Nc3cc(C(=O)Nc4ccc(S(=O)(=O)O)c5cc(S(=O)(=O)O)cc(S(=O)(=O)O)c45)ccc3C)c2)c1 [Suramin] |  |  | x | completely inhibited |
| N=C(N)NC(=O)c1nc(Cl)c(N)nc1N [Amiloride] |  |  | x |  |
| O=c1cc(N2CCOCC2)oc2c(-c3ccccc3)cccc12 [LY294002] |  |  | Δ |  |
| C[C@@H](N)[C@H]1CC[C@H](C(=O)Nc2ccncc2)CC1 [Y27632] |  |  | x |  |
| CN(C)c1ccc(O)c2c1C[C@H]1C[C@H]3[C@H](N(C)C)C(O)=C(C(N)=O)C(=O)[C@@]3(O)C(O)=C1C2=O [Minocycline] |  |  | x |  |

Source: patent US8741645B2, “Test kit comprising a culture instrument with a cell pattern and a gel suitable to embed cell pattern” (Dai Nippon Printing Co., Ltd., priority 2006, dated 2014)
